Test [1] has as its target T1, porcine leukocyte 12/15-lipoxygenase (Sus scrofa, UniProt P16469).
T1 sequence (P16469 1-663): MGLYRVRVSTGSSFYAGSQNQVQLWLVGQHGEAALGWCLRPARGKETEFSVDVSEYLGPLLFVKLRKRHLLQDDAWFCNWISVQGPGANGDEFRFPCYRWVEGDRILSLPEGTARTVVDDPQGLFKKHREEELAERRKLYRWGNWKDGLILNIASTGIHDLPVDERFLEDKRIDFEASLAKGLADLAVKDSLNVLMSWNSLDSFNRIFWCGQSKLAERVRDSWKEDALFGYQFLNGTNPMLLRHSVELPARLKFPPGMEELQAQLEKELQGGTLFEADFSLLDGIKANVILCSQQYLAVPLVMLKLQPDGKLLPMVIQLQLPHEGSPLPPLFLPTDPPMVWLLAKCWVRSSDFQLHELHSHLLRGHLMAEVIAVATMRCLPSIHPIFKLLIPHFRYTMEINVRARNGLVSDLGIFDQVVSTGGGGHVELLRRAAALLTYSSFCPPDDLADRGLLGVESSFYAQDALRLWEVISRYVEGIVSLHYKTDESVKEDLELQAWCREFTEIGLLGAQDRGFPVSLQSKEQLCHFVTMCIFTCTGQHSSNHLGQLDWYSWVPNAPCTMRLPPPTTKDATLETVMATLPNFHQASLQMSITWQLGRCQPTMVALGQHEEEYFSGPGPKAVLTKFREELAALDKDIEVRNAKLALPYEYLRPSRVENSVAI
Briefly: 12/15-Lipoxygenase enzyme assay. Type of test: biochemical. Conditions: 70 μM arachidonic acid, pH 7.4; read-out: IC50, inhibition of 12/15-Lipoxygenase. The procedure: This procedure was used for measuring the enzymatic activity of porcine leukocyte 12/15-lipoxygenase using a calorimetric method based on the ferric oxidation of xylenol orange.
(§1) Porcine Leukocyte 12/15-lipoxygenase (Cayman Cat # 60300) was used in this assay. Test compound and/or vehicle was added to 1.3U 12/15-lipoxygenase in 50 mM Tris-HCl buffer, pH 7.4. The reaction was initiated by addition of 70 μM arachidonic acid in Tris-HCl buffer, pH 7.4, and terminated after a 10 minute incubation at room temperature by addition of FOX reagent (25 mM sulphuric acid, 100 μM xylenol orange, 100 μM iron (II) sulphate, methanol:water 9:1). The yellow color of acidified xylenol orange was converted to a blue color by the lipid hydroperoxide-mediated oxidation of Fe^2+ ions and the interaction of the resulting Fe^3+ ions with the dye. The complex was allowed to form during a 1 hour incubation at room temperature with shaking. Absorbance of the Fe^3+ complex was then measured at […] using a spectrophotometer.
(§2) Negative controls contained enzyme during the incubation step but substrate was not added until after the FOX reagent.
Compounds are screened at 5 concentrations in triplicate starting at 10 μM

Test [2] has as its system LTB4 release from MPRO cell line. Put plainly: LTB4-cell assay. The following applies: Mus musculus; differentiated MPRO cells, 1 μM A23187, 1 hour; read-out: EC50, inhibition of LTB4. The format is cell-based. How it is done: This procedure was used for measuring the release of the leukotriene LTB4 from a neutrophil cell line using a competitive ELISA technique.
A mouse promyelocytic cell line (MPRO) was used in this assay. These cells are committed immature neutrophils that can be differentiated into mature neutrophils by treatment with 10 μM all-trans retinoic acid for 72 hours
Following 72 hours of differentiation, cells were stimulated with 1 μM of a calcium ionophore (A23187) in the presence or absence of test compound or vehicle for 1 hour at 37° C. After this time, supernatant was removed from the cells and the LTB4 levels were determined following manufacturer's instructions, using a Leukotriene B4 EIA kit from Cayman (Cat # 520111)
The negative controls were media samples from differentiated but unstimulated cells.
The compounds were screened at 5 concentrations in quadruplicate starting at 10 μM

For test [3], the system named is LTB4 production in heparinized whole blood. Put plainly: Inhibition of LTB4 production in blood. Conditions: 20 μM A23187, read-out: EC50, protection against LTB4. The format is cell-based, rat or mouse. The procedure: The blood was collected in heparinized tubes or syringes to prevent clotting. Heparin was at 20 USP U/ml. About 3-5 ml of blood was collected per rat and about 0.5-0.75 ml per mouse. This assay required 200 μl/data point, therefore a 96 well plate requires 20 ml.
The Calcium ionophore A23187 was prepared as a 10 mM stock solution in DMSO and the test agent is prepared in DMSO so that <1 μl DMSO will be added to the well
200 μl blood per well were added in a round bottom 96 well clear plastic 96 well plate followed by the test agent. After 10 minutes incubation at 37° C., 5 μl of Calcium ionophore A23187 for a final concentration of 20 μM were added and mixed, and further incubated for 30 min. After 1000×g centrifugation to pellet blood cells, 20 μl plasma was carefully removed.
20 μl plasma were added to 80 μl methanol to precipitate protein and mixed. This was further incubated 10 min. at room temperature and centrifuged at 1000×g to pellet protein.
Following manufacturer's instructions, the commercially available EIA kit was used to subsequently measure the LTB4 production in the samples. The LTB4 levels produced in the vehicle control sample were then compared to those in which the test compound had been added. From this a percent inhibition of LTB4 production by each concentration of test compound was calculated and the IC50 for inhibition of LTB4 production for each test compound was determined.

The target in test [4] is T2, human recombinant 5-lipoxygenase (Homo sapiens, UniProt P09917).
T2 construct: purchased Cayman 60402
T2 sequence (P09917 1-674): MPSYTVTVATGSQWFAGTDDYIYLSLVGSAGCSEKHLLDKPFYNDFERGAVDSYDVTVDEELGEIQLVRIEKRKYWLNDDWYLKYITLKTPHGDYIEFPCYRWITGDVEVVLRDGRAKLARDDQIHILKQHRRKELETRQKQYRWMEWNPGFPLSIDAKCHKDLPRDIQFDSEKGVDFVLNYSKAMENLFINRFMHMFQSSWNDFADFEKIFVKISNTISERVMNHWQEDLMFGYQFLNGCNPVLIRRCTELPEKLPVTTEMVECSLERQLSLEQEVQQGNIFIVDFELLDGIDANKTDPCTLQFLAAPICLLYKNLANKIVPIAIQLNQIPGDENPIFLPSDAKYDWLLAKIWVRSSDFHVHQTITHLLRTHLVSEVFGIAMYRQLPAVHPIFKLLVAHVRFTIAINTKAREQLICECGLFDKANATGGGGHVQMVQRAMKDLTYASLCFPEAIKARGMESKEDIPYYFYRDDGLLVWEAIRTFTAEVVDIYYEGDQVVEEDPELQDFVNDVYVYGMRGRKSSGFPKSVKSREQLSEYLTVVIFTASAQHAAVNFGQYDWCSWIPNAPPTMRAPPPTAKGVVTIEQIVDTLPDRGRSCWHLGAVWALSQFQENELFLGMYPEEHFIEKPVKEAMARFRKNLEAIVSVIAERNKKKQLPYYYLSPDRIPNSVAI
Briefly: 5-Lipoxygenase enzyme assay. Type of test: biochemical. Conditions: 70 μM arachidonic acid, pH 7.4. How it is done: This procedure was used for measuring the enzymatic activity of human recombinant 5-lipoxygenase using a […] method based on the ferric oxidation of xylenol orange.
as §1, with “Human recombinant 5-lipoxygenase” for “Porcine Leukocyte 12/15-lipoxygenase”, “60402)” for “60300)”, “The test” for “Test”, “0.5U 5-lipoxygenase” for “1.3U 12/15-lipoxygenase”
as §2
Compounds were screened at 5 concentrations in triplicate starting at 10 μM

Test [5] concerns dopaminergic neuronal cell line. Put plainly: High glutamate-induced oxidative stress assay (HGOS). The format is cell-based. The following applies: Mus musculus; 30 mM glutamate, 16 hrs; read-out: EC50, protection against HGOS cell injury and cell death. The text has this: Protection against redox stress can be further evaluated in cell culture using high glutamate induced oxidative stress (HGOS) in mouse dopaminergic cell lines. The cytotoxic effect of glutamate is not due to excitotoxicity, as this cell line is devoid of inotropic glutamate receptors. Rather, the glutamate-induced toxicity of dopaminergic cells is associated with an inhibition of cystine transport which subsequently leads to depletion of intracellular glutathione (GSH) levels (Murphy T. H., et al. Neuron 2, 1547-1558, 1989), activation of neuronal 12-lipoxygenase (Li, Y. et al., Neuron 19, 453-463, 1997), increased ROS production (Tan S. et al., J. Cell Biol. 141, 1423-1432, 1998) and elevated intracellular Ca^2+ (Li, Y. et al., see supra). Some molecules were measured for their ability to protect cells against glutamate-induced stress and the assay is detailed in Examples.
This procedure was used to induce high glutamate-induced oxidative stress (HGOS) in a dopaminergic neuronal cell line. Using this assay the potency and efficacy of test articles against HGOS neuronal cell injury and cell death was established in a high throughput manner.
The cells were seeded into 96-well plates at a density of 2000 per well and left to grow for 72 hours in a 33° C. incubator with 5% CO2 in air atmosphere. The passage number of the cells for each assay experiment were no later than p11 in order to minimize experimental variation.
All compounds were dissolved in DMEM-No Glu containing 1 mM glucose, 30 mM glutamate and 1×Pen/Strep. DMEM-No Glu with 1 mM glucose and 1×P/S was used as the negative control, DMEM-No Glucose with 1 mM glucose, […] was used as a positive control and 100 μM Glutathione was added to the positive control as a standard. All of the procedures for this involving the making and dilution of compounds were performed using aseptic conditions and with minimal light.
The plates were removed from the incubator and examined under the microscope for morphological appearance and density. Using an aseptic technique and an 8-channel aspirator the media was carefully removed from the cells and replaced with 200 μl of 1×HBSS. This was done as quickly as possible to prevent the cells drying out. The plates were then placed in the humidified 37° C. incubators of the Biomek 2000 Side Loader. Four plates were washed at a time so as to minimize the time that the cells were sitting in 1×HBSS prior to addition of the compound test solution.
The Beckman Biomek workstations were used to load the compounds and controls from the mother plates onto the cell plates that were prewashed with HBSS under sterile conditions. The plates were incubated in the upper HTS incubator at 37° C. in 5% CO2 for exactly 16 hrs. The following day, using the Beckman Biomek workstations, the plates were removed from the incubator. Using Cell Tracker Addition, the compounds were removed from the plates, washed once with […] of pre-warmed 1×HBSS and then 100 μL of 5 μM Cell Tracker Green was added to each well. The plates were incubated at 37° C. for 30 min to allow the dye to enter the cell and be cleaved by the esterases. After washing the cells twice with prewarmed 1×HBSS, the plates were read with the 485 excitation; 538 emission filter pair on a Fluoroskan.

SMILES strings stand for the structures.

For `Cc1c(O)c2c(c3c1CCC(C)(C)O3)C1CCC2CC1` [2,2,5-Trimethyl-3,4,7,8,9,10-hexahydro-7,10-ethano-2H-benzo[h]chromen-6-ol], the IC50 in test [1] was at most 10 µM. Besides, the concentration giving a half-maximal response (EC50) in test [2] is at most 5 µM.

On to `CC1(C)CCc2cc(O)c3c(c2O1)C1CCC3C1` (stereo not drawn) [2,2-Dimethyl-3,4,7,8,9,10-hexahydro-7,10-methano-2H-benzo[h]chromen-6-ol], for which the concentration giving a half-maximal response (EC50) in test [3] is at most 10 µM; in test [2] it was at most 5 µM. For the same molecule, the results for the IC50 in test [1] and in test [4] were at most 10 µM and at most 5 µM, respectively.

For `CC1(CCCSc2ccncc2)CCc2cc(O)c3c(c2O1)C1CCC3C1` (stereo not drawn) [2-Methyl-2-[3-(pyridin-4-ylsulfanyl)-propyl]-3,4,7,8,9,10-hexahydro-7,10-methano-2H-benzo[h]chromen-6-ol], the figures for the IC50 in test [1] and in test [4] were at most 10 µM and at most 5 µM, respectively. Moreover, in test [2], the concentration for a half-maximal effect (EC50) is at most 5 µM.

As to `CC1(c2nccs2)CCc2cc(O)c3c(c2O1)C1CCC3C1` (stereo not drawn) [2-Methyl-2-thiazol-2-yl-3,4,7,8,9,10-hexahydro-7,10-methano-2H-benzo[h]chromen-6-ol], the IC50 in test [1] is at most 10 µM. For the same molecule, the EC50 in test [2] was at most 5 µM.

On to `CC1(c2cccs2)CCc2cc(O)c3c(c2O1)C1CCC3C1` (stereo not drawn) [2-methyl-2-thiophen-2-yl-3,4,7,8,9,10-hexahydro-7,10-methano-2H-benzo[h]chromen-6-ol], for which the half-maximal effective concentration (EC50) in test [3] was at most 10 µM; in test [2], at most 5 µM; in test [5] it was at most 1 µM. For the same molecule, the IC50 in test [1] is at most 10 µM.

The EC50 is the concentration needed to bring the measured effect to its halfway point.

The record behind these values is US7875607B2, “7,8-bicycloakyl-chroman derivatives” (Ampere Life Sciences, Inc., priority 2004, dated 2011).
